These results are taken from patent US20250296959A1, “B7-H3 TARGETING PEPTIDES AND CONSTRUCTS THEREOF” (Mariana Oncology Inc., priority 2024, published 2025).

The term Kd denotes a measure of binding affinity in units of concentration. A low value points to higher affinity.

Starred links: 1 amine or outer side, 2 acyl side, 3 side chain; linkers in the order of their positions; H or OH if unused. Positions of bridges follow the written chain, without caps; N, C: chain ends. Non-standard residues stand in square brackets, D forms with d. Residues, ends and D or L forms follow the SMILES beside them. Groups on a side chain read outwards from the residue. *: point of attachment. Ala(piperidin-4-yl) = O=C([C@H](CC1CCN([*:3])CC1)N[*:1])[*:2]; DOTA = O=C(O)CN1CCN(CC(=O)O)CCN(CC(=O)*)CCN(CC(=O)O)CC1; Trp(5-F) = N[C@@H](Cc1c[nH]c2ccc(F)cc12)C(=O)O; X1 = C[C@@H](c1ccccc1)[C@H](N[*:1])C(=O)[*:2]; X17 = CN1CCC(C[C@H](N[*:1])C(=O)[*:2])CC1; 1Nal = N[C@@H](Cc1cccc2ccccc12)C(=O)O; Ala(4-THP) = N[C@@H](CC1CCOCC1)C(=O)O; Val(3-OH) = CC(C)(O)[C@H](N)C(=O)O; 4Pal = N[C@@H](Cc1ccncc1)C(=O)O; PEG4 = NCCOCCOCCOCCOCCC(=O)O; Tle = CC(C)(C)[C@H](N)C(=O)O; hLeu = CC(C)CC[C@H](N)C(=O)O; Nle = CCCC[C@H](N)C(=O)O; Dab = NCC[C@H](N)C(=O)O; CH2 = C([*:1])[*:2]; NEtG = CCNCC(=O)O; Sar = CNCC(=O)O Bounds are passed on as bounds.

The target in this test is T1, human 4lg B7-H3 (Homo sapiens, UniProt Q5ZPR3).
T1 sequence (Q5ZPR3 29-534): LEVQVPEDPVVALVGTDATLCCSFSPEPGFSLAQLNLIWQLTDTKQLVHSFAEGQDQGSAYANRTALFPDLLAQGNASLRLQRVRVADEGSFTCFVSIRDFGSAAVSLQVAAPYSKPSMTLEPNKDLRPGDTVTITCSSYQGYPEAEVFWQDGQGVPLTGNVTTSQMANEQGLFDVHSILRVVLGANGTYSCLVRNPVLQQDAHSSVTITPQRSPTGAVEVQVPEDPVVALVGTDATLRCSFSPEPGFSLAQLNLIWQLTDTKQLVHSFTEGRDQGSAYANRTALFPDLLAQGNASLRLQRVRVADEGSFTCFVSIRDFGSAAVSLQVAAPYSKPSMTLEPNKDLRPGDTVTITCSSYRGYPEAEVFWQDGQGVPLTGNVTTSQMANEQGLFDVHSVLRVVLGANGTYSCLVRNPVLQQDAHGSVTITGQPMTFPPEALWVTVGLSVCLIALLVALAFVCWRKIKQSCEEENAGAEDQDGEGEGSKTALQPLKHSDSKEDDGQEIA
Put plainly: Affinity determination by surface plasmon resonance (SPR) to 4Ig B7-H3. The conditions noted are these: 4Ig B7-H3. In general terms: SPR reads the build-up and loss of mass on a sensor chip optically.

Setting [1] is: SPR KD—37° C., 37° C. flow cell temperature.
The mark [2] stands for this setting: SPR KD—25° C., 25° C. flow cell temperature.

`CC(=O)N[C@@H](CCC(C)C)C(=O)N[C@@H](Cc1ccc(O)cc1)C(=O)N[C@H]1CSSC[C@@H](C(=O)N[C@@H](Cc2cccc3ccccc23)C(=O)N[C@H](C(=O)N[C@H](C(=O)N[C@H](CCCCNC(=O)CN2CCN(CC(=O)O)CCN(CC(=O)O)CCN(CC(=O)O)CC2)C(=O)O)C(C)(C)O)[C@@H](C)c2ccccc2)NC(=O)[C@H](Cc2ccc(O)cc2)NC(=O)[C@H](C(C)C)NC(=O)[C@H](CC(=O)O)NC(=O)[C@H](CC2CCOCC2)NC(=O)[C@H](CC2CCNCC2)NC(=O)CNC(=O)[C@H](C(C)(C)C)NC1=O` [compound 516, Ac-hLeu-Y-C-Tbg-G-PipAla-ThpA-D-V-Y-C-1Nal-[(2S, 3S)beta-Me-Phe]-hydroxyVal-dLys(DOTA)-COOH] (Ac-[hLeu]YC[Tle]G[Ala(piperidin-4-yl)][Ala(4-THP)]DVYC[1Nal][X1][Val(3-OH)][dK](DOTA)-OH; disulfide 3-11) displayed an equilibrium dissociation constant (Kd) under setting [1] of less than 0.001 µM.

On to `CC(=O)N[C@@H](CCC(C)C)C(=O)N[C@@H](Cc1ccc(O)cc1)C(=O)N[C@H]1CSSC[C@@H](C(=O)N[C@@H](Cc2c[nH]c3ccccc23)C(=O)N[C@@H](Cc2ccccc2)C(=O)N[C@H](C(N)=O)[C@@H](C)O)NC(=O)[C@H](Cc2ccc(O)cc2)NC(=O)[C@H](C(C)C)NC(=O)[C@H](CC(=O)O)NC(=O)[C@H](Cc2ccc(O)cc2)NC(=O)[C@H](CCCCNC(=O)CN2CCN(CC(=O)O)CCN(CC(=O)O)CCN(CC(=O)O)CC2)NC(=O)CNC(=O)[C@H](C(C)C)NC1=O` [compound 145, Ac-hLeu-Y-C-V-G-Lys(DOTA)-Y-D-V-Y-C-W-F-Thr-CONH2] (Ac-[hLeu]YCVGK(DOTA)YDVYCWFT-NH2; disulfide 3-11), for which, under setting [2], the equilibrium dissociation constant (Kd) lay within 0.001 to 0.01 µM.

As to `CC(=O)N[C@@H](CCC(C)C)C(=O)N[C@@H](Cc1ccc(O)cc1)C(=O)N[C@H]1CSSC[C@@H](C(=O)N[C@@H](Cc2c[nH]c3ccc(F)cc23)C(=O)N[C@H](C(=O)N[C@H](C(=O)N[C@H](C)C(=O)O)C(C)(C)O)[C@@H](C)c2ccccc2)NC(=O)[C@H](Cc2ccc(O)cc2)NC(=O)[C@H](C(C)C)NC(=O)[C@H](CC(=O)O)NC(=O)[C@H](CC2CCN(C(=O)CCOCCOCCOCCOCCNC(=O)CN3CCN(CC(=O)O)CCN(CC(=O)O)CCN(CC(=O)O)CC3)CC2)NC(=O)[C@H](CC2CCN(C)CC2)NC(=O)CNC(=O)[C@H](C(C)(C)C)NC1=O` [compound 520, Ac-hLeu-Y-C-Tbg-G-Pip(Me)Ala-Pip(PEG4-DOTA)Ala-D-V-Y-C-5FW-[(2S, 3S)beta-Me-Phe]-hydroxyVal-dAla-COOH] (Ac-[hLeu]YC[Tle]G[X17][Ala(piperidin-4-yl)]([PEG4-DOTA])DVYC[Trp(5-F)][X1][Val(3-OH)][dA]-OH; disulfide 3-11), the Kd under setting [1] was less than 0.001 µM. The compound `CCCC[C@H](NC(C)=O)C(=O)N[C@@H](Cc1ccc(O)cc1)C(=O)N[C@H]1CSSC[C@@H](C(=O)N[C@@H](Cc2c[nH]c3ccccc23)C(=O)N[C@@H](Cc2ccccc2)C(N)=O)NC(=O)[C@H](Cc2ccc(O)cc2)NC(=O)[C@H](C(C)C)NC(=O)[C@H](CC(=O)O)NC(=O)[C@H](Cc2ccc(O)cc2)NC(=O)[C@H](CCCCN)NC(=O)CN(CC)C(=O)[C@H](C(C)C)NC1=O` [compound 52, Ac-Nle-Y-C-V-NetGly-K-Y-D-V-Y-C-W-F-CONH2] (Ac-[Nle]YCV[NEtG]KYDVYCWF-NH2; disulfide 3-11) came in with an equilibrium dissociation constant (Kd) under setting [2] of 0.01 to 0.1 µM.

Take `CCCC[C@H](NC(C)=O)C(=O)N[C@@H](Cc1ccc(O)cc1)C(=O)N[C@H]1CSSC[C@@H](C(=O)N[C@@H](Cc2c[nH]c3ccccc23)C(=O)N[C@@H](Cc2ccccc2)C(N)=O)NC(=O)[C@H](Cc2ccc(O)cc2)NC(=O)[C@H](C(C)C)NC(=O)[C@H](CC(=O)O)NC(=O)[C@H](Cc2ccc(O)cc2)NC(=O)[C@H](CCCCN)NC(=O)CN(C)C(=O)[C@H](C(C)C)NC1=O` [compound 26, Ac-Nle-Y-C-V-Sar-K-Y-D-V-Y-C-W-F-CONH2] (Ac-[Nle]YCV[Sar]KYDVYCWF-NH2; disulfide 3-11): the Kd runs as follows: under setting [2], 0.01 to 0.1 µM; under setting [1], 0.01 to 0.1 µM. As to `CC(=O)N[C@@H](CCC(C)C)C(=O)N[C@@H](Cc1ccc(O)cc1)C(=O)N[C@H]1CSSC[C@@H](C(=O)N[C@@H](Cc2c[nH]c3ccc(F)cc23)C(=O)N[C@@H](Cc2ccccc2)C(=O)N[C@H](C(N)=O)C(C)(C)O)NC(=O)[C@H](Cc2ccc(O)cc2)NC(=O)[C@H](C(C)C)NC(=O)[C@H](CC(=O)O)NC(=O)[C@H](CC2CCOCC2)NC(=O)[C@H](CCCCN)NC(=O)CNC(=O)[C@H](C(C)(C)C)NC1=O` [compound 404, Ac-hLeu-Y-C-Tbg-G-K-ThpA-D-V-Y-C-5FW-F-hydroxyVal-CONH2] (Ac-[hLeu]YC[Tle]GK[Ala(4-THP)]DVYC[Trp(5-F)]F[Val(3-OH)]-NH2; disulfide 3-11), the Kd under setting [1] was 0.001 to 0.01 µM.

`CC(=O)N[C@@H](CCC(C)C)C(=O)N[C@@H](Cc1ccc(O)cc1)C(=O)N[C@H]1CSCSC[C@@H](C(=O)N[C@@H](Cc2c[nH]c3ccc(F)cc23)C(=O)N[C@@H](Cc2ccccc2)C(=O)N[C@H](C(=O)N[C@H](CCCCNC(=O)CN2CCN(CC(=O)O)CCN(CC(=O)O)CCN(CC(=O)O)CC2)C(N)=O)[C@@H](C)O)NC(=O)[C@H](Cc2ccc(O)cc2)NC(=O)[C@H](C(C)C)NC(=O)[C@H](CC(=O)O)NC(=O)[C@H](Cc2ccc(O)cc2)NC(=O)[C@H](CCCCN)NC(=O)CNC(=O)[C@H](C(C)C)NC1=O` [compound 189, Ac-hLeu-Y-C(CH2)-V-G-K-Y-D-V-Y-C-5FW-F-Thr-dLys(DOTA)-CONH2] (Ac-[hLeu]YCVGKYDVYC[Trp(5-F)]FT[dK](DOTA)-NH2; linker 3-11 via CH2): the dissociation constant (Kd) under setting [2] fell in the range of 0.1 to 0.3 µM. Still for that read-out and setting: the result for `CC(=O)N[C@@H](CCC(C)C)C(=O)N[C@@H](Cc1ccc(O)cc1)C(=O)N[C@H]1CSSC[C@@H](C(=O)N[C@@H](Cc2c[nH]c3ccc(F)cc23)C(=O)N[C@@H](Cc2ccccc2)C(=O)N[C@H](C(=O)N[C@H](CCCCNC(=O)CN2CCN(CC(=O)O)CCN(CC(=O)O)CCN(CC(=O)O)CC2)C(N)=O)[C@@H](C)O)NC(=O)[C@H](Cc2ccc(O)cc2)NC(=O)[C@H](C(C)C)NC(=O)[C@H](CC(=O)O)NC(=O)[C@H](Cc2ccncc2)NC(=O)[C@H](CCCCN)NC(=O)CNC(=O)[C@H](C(C)C)NC1=O` [compound 240, Ac-hLeu-Y-C-V-G-K-4PyA-D-V-Y-C-5FW-F-Thr-dLys(DOTA)-CONH2] (Ac-[hLeu]YCVGK[4Pal]DVYC[Trp(5-F)]FT[dK](DOTA)-NH2; disulfide 3-11) reads less than 0.001 µM. For `CC(=O)N[C@@H](CCC(C)C)C(=O)N[C@@H](Cc1ccc(O)cc1)C(=O)N[C@H]1CSSC[C@@H](C(=O)N[C@@H](Cc2cccc3ccccc23)C(=O)N[C@@H](Cc2ccccc2)C(=O)N[C@H](C(=O)N[C@H](CCCCNC(=O)CN2CCN(CC(=O)O)CCN(CC(=O)O)CCN(CC(=O)O)CC2)C(=O)O)C(C)(C)O)NC(=O)[C@H](Cc2ccc(O)cc2)NC(=O)[C@H](C(C)C)NC(=O)[C@H](CC(=O)O)NC(=O)[C@H](CC2CCOCC2)NC(=O)[C@H](CCN)NC(=O)CNC(=O)[C@H](C(C)(C)C)NC1=O` [compound 435, Ac-hLeu-Y-C-Tbg-G-Dab-ThpA-D-V-Y-C-1Nal-F-hydroxyVal-dLys(DOTA)-COOH] (Ac-[hLeu]YC[Tle]G[Dab][Ala(4-THP)]DVYC[1Nal]F[Val(3-OH)][dK](DOTA)-OH; disulfide 3-11), the Kd under setting [1] was less than 0.001 µM. As to `CCCC[C@H](NC(=O)[C@H](Cc1c[nH]c2ccc(F)cc12)NC(=O)[C@@H]1CSSC[C@H](NC(=O)[C@H](Cc2ccc(O)cc2)NC(=O)[C@H](CCC(C)C)NC(C)=O)C(=O)N[C@@H](C(C)(C)C)C(=O)NCC(=O)N[C@@H](CCCCNC(=O)CN2CCN(CC(=O)O)CCN(CC(=O)O)CCN(CC(=O)O)CC2)C(=O)N[C@@H](CC2CCOCC2)C(=O)N[C@@H](CC(=O)O)C(=O)N[C@@H](C(C)C)C(=O)N[C@@H](Cc2ccc(O)cc2)C(=O)N1)C(=O)N[C@H](C(N)=O)C(C)(C)O` [compound 336, Ac-hLeu-Y-C-Tbg-G-Lys(DOTA)-ThpA-D-V-Y-C-5FW-Nle-hydroxyVal-CONH2] (Ac-[hLeu]YC[Tle]GK(DOTA)[Ala(4-THP)]DVYC[Trp(5-F)][Nle][Val(3-OH)]-NH2; disulfide 3-11), the Kd under setting [1] was in the range of 0.01 to 0.1 µM.

`CC[C@H](C)[C@@H]1NC(=O)[C@@H](NC(=O)[C@H](Cc2ccc(O)cc2)NC(=O)[C@H](CCC(C)C)NC(C)=O)CSSC[C@@H](C(=O)N[C@@H](Cc2c[nH]c3ccc(F)cc23)C(=O)N[C@@H](Cc2ccccc2)C(=O)N[C@H](C(=O)O)C(C)(C)O)NC(=O)[C@H](Cc2ccc(O)cc2)NC(=O)[C@H](C(C)C)NC(=O)[C@H](CC(=O)O)NC(=O)[C@H](CC2CCNCC2)NC(=O)[C@H](CCCCNC(=O)CN2CCN(CC(=O)O)CCN(CC(=O)O)CCN(CC(=O)O)CC2)NC(=O)CNC1=O` [compound 323, Ac-hLeu-Y-C-Ile-G-Lys(DOTA)-PipAla-D-V-Y-C-5FW-F-hydroxyVal-COOH] (Ac-[hLeu]YCIGK(DOTA)[Ala(piperidin-4-yl)]DVYC[Trp(5-F)]F[Val(3-OH)]-OH; disulfide 3-11): under setting [1], the Kd was 0.001 to 0.01 µM.
